Test results from US8618075B2, “Certain compounds, compositions and methods” (Eisai Inc., priority 2007, dated 2013).

What was measured:
[1] = Stability in acid solution by 1H NMR spectroscopy; format: physicochemical; details: D2O + one drop deuterated TFA, 27° C.
Procedure: Tetrahydrouridine (THU, 5 mg) is dissolved in D2O (0.75 mL). To this same sample is added one drop of deuterated TFA followed by an immediate ^1HNMR spectrum (FIG. 10). Even at this earliest time point, the peak at 5.4 ppm (˜10% conversion by integration) is indicative of the ring expansion to the TH-pyranose. After 4 hours, the TH-pyranose is more prevalent indicating about 60% conversion. At 72 hours, the conversion is almost entirely complete (>80%).
To this same sample is added one drop of deuterated TFA followed by an immediate ^1HNMR spectrum (FIG. 12). After the first time point, the only notable change is the epimerization of the aminal which is noted by the extra peaks at 5.92 and 5.93. After 4 hours and 72 hours (FIG. 13), there are no other notable changes in the spectra (D2O, 300 MHz, 27° C.).

[2] = tested on: L1210 mouse lymphoma model; experiment: Decitabine induced survival in the L1210 survival model; format: in vivo; details: for Survival compared to vehicle control and CDA inhibitor alone: p<0.05; for Mean Liver wts. (g) ± SD / Mean Spleen wts. (g) ± SD: on autopsy; for % ILS (Increased Life Span): vs vehicle group
Procedure: 30 CD2F1 6-7 weeks old female mice are randomly separated into 6 groups:
L1210 Intravenous (Lv.) Injection: Prior to experiment, L1210 cells are passed at least 3 times in CD2F1 female mice. The mice are injected intraperitoneally (i.p.) with L1210 ascites one prior week to sacrifice using CO2. Each mouse is placed on its back, its belly surface is cleaned with alcohol wipes and a small incision is made into its peritoneal cavity. 2 ml of ice cold 2.1% bovine serum albumin (BSA) in saline is injected into the cavity. Fluid is withdrawn from the cavity, transferred with an 18G 3 cc syringe into a clean sterile tube, and kept on ice. The fluid is diluted 1:10 in 2.1% BSA in saline and one drop of zap-o-globin is added to 2 ml of diluted ascites. Diluted ascites (dilute 1:10 again) are counted on a hematocytomer and the number of cells/ml is calculated. A stock of ascites in BSA solution is diluted to 1×10^4 cells/0.1 ml. Mice are injected with 0.1 ml of cell solution with a 27G needle.
Decitabine is prepared at a 1 mg/ml stock in PBS and diluted appropriately to achieve a 0.01 and 0.02 mg/ml dosing solution.
Dosing Scheme: Decitabine is prepared fresh twice a day. All dose solutions are stored on ice while dosing. Mice are dosed i.p. or orally (p.o.) twice a day (8 hours apart) for 4 consecutive days.
Survival and Autopsy: Mice are observed for survival and weighed daily (Monday to Friday) for the duration of the study (30 days). Dead mice are autopsied and observed for the presence of tumors in organs. Tumor deaths are determined by liver weights greater than 1.6 g and spleen weights greater than 150 mg as per Covey et al., Eur. J. Cancer Oncol. 1985.

[3] = tested on: A2780 human ovarian cancer xenograft; experiment: Gemcitabine-induced reduction of tumor volume in the mouse A2780 human ovarian cancer xenograft model; format: in vivo
Procedure: Female NCr nu/nu 5-6 week old mice are implanted subcutaneously with 30 to 60 mg tumor fragments. On day 11 when the tumors are approximately 200 mm^3, treatment starts as described in Table 5.
Tumor volume is followed throughout the experiment. Tumor volume is measured three times weekly. Tumor burden (mg=mm^3) is calculated from caliper measurements by the formula for the volume of a prolate ellipsoid (L×W^2)/2 where L and W are the respective orthogonal length and width measurements (mm).
The primary endpoints used to evaluate efficacy in the A2780 model are complete and partial tumor regressions, tumor growth delay and the number of tumor free survivors at the end of the study. A complete response (CR) is defined as a decrease in tumor size to an undetectable size (<50mm^3). A partial response (PR) is defined as >50% decrease in tumor mass form starting tumor size. A tumor that achieves a CR or PR during the study but starts to grow again is still considered a CR or PR. Tumor free survival (TFS) at the end of the study would be no detectable tumor (<50 mm^3) at study termination (day 74). Tumor growth delay (TGD) is defined in this experiment as the median number of days for the treatment group compared to the control group to reach 750 mm^3.

[4] = CDA inhibitor plus decitabine 0.1 mg/kg
[5] = 30 mg/kg Gemcitabine PO + Compound 1 10 mg/kg PO q3dx4
[6] = Group 2: Compound 1 10 mg/kg p.o. alone
[7] = Group 2: Compound 1 10 mg/kg p.o. x2 for 4 days alone
[8] = Group 4: Compound 1 1 mg/kg + 0.1 mg/kg decitabine p.o.
[9] = Group 5: Compound 1 10 mg/kg + 0.1 mg/kg decitabine p.o.
[10] = Group 3: 0.1 mg/kg decitabine p.o. alone
[11] = 10 mg/kg Gemcitabine PO q3dx4 alone
[12] = 30 mg/kg Gemcitabine PO q3dx4 alone

O=C1N[C@H](O)CCN1C1O[C@H](CO)[C@@H](O)C1(F)F (single isomer, unassigned) [Compound 1a, 2′2′-DiFluoro-TetraHydroUridine]
Pyranose formation in acid ([1]; up to 72 hours, only epimerization of the aminal noted): no pyranose formation occurs | Extending survival compared to the lower doses ([2]; 10 mg/kg Compound 1a in combination with DAC): more effective | Survival compared to vehicle control and CDA inhibitor alone [2, 4]: live longer

O=C1NC(O)CCN1C1O[C@H](CO)[C@@H](O)C1(F)F (some centres unmarked) [Compound 1, 2′2′-DiFluoro-TetraHydroUridine]
TGD (tumor growth delay) ([3]; 10 mg/kg Compound 1 PO q3dx4 alone, median days to reach 750 mm^3 vs control): 0.4 days | Tumors displaying CR ([3]; 10 mg/kg Gemcitabine PO + Compound 1 10 mg/kg PO q3dx4): 75% | TGD (tumor growth delay) ([3]; 10 mg/kg Gemcitabine PO + Compound 1 10 mg/kg PO q3dx4, p<0.05 vs 10 mg/kg Gem alone): 19.2 days | CR [3, 5]: 100% | Incidence of TFS at day 74 [3, 5]: 50% | TGD (tumor growth delay) ([3]; 30 mg/kg Gemcitabine PO + Compound 1 10 mg/kg PO q3dx4, p<0.05 vs 30 mg/kg Gem alone): >57 days | Mean Liver wts. (g) ± SD [2, 6]: 1.99 ± 0.22 g | Mean Spleen wts. (g) ± SD [2, 6]: 0.39 ± 0.07 g | Mean Survival (days) ± SD [2, 7]: 7.40 ± 0.55 days | % ILS (Increased Life Span) [2, 7]: 0.00% | Mean Survival (days) ± SD ([2]; Group 4: Compound 1 1 mg/kg + 0.1 mg/kg decitabine p.o. x2 for 4 days): 12.8 ± 0.45 days | Mean Liver wts. (g) ± SD [2, 8]: 2.03 ± 0.08 g | Mean Spleen wts. (g) ± SD [2, 8]: 0.29 ± 0.03 g | % ILS (Increased Life Span) [2, 8]: 72.97% | Mean Survival (days) ± SD ([2]; Group 5: Compound 1 10 mg/kg + 0.1 mg/kg decitabine p.o. x2 for 4 days): 14.2 ± 0.45 days | Mean Liver wts. (g) ± SD [2, 9]: 2.02 ± 0.27 g | Mean Spleen wts. (g) ± SD [2, 9]: 0.29 ± 0.07 g | % ILS (Increased Life Span) [2, 9]: 91.89%

O=C1N[C@H](O)CCN1C1O[C@H](CO)[C@@H](O)[C@H]1F (stereo partly drawn) [Compound 3a, 2′(S)-fluoro-2′deoxy-tetrahydrouridine]
Survival compared to vehicle control and CDA inhibitor alone [2, 4]: live longer

Nc1ncn([C@H]2C[C@H](O)[C@@H](CO)O2)c(=O)n1 [Decitabine, 5-Aza-2′-deoxycytidine, reference compound]
Mean Liver wts. (g) ± SD [2, 10]: 2.05 ± 0.17 g | Mean Spleen wts. (g) ± SD [2, 10]: 0.33 ± 0.06 g | % ILS (Increased Life Span) [2, 10]: 43.24% | Mean Survival (days) ± SD ([2]; Group 3: 0.1 mg/kg decitabine p.o. x2 for 4 days alone): 10.6 ± 0.56 days | Survival compared to vehicle control and CDA inhibitor alone ([2]; decitabine 0.1 mg/kg alone): live longer | Efficacy (survival) compared to 0.1 mg/kg decitabine i.p. ([2]; decitabine 0.1 mg/kg p.o., not significantly different, p=0.052): less effective

Nc1ccn([C@@H]2O[C@H](CO)[C@@H](O)C2(F)F)c(=O)n1 [Gemcitabine, reference compound]
Complete responses (CR) [3, 11]: no CRs | Partial responses (PR) [3, 11]: no | Tumor free survivors (TFS) at day 74 [3, 11]: no | TGD (tumor growth delay) ([3]; 10 mg/kg Gemcitabine PO q3dx4 alone, not statistically significant): 6.1 days | TGD (tumor growth delay) ([3]; 30 mg/kg Gemcitabine PO q3dx4 (MTD) alone, p<0.05 vs untreated control): 22 days | CRs [3, 12]: 63% | Tumor free survivors (TFS) at day 74 [3, 12]: no TFS

O=C1NC(O)CCN1[C@@H]1O[C@H](CO)[C@@H](O)[C@H]1O (some centres unmarked) [THU, Tetrahydrouridine]
Conversion to TH-pyranose ([1]; after 4 hours): about 60% | Conversion to TH-pyranose ([1]; at 72 hours): > 80% | Conversion to TH-pyranose (by integration) ([1]; immediate spectrum): ~10%
